PMC2652245 (Cancer research, 2008)

How the values were obtained:
ABCG2 = molecular target: T1, ABCG2 (Homo sapiens, UniProt Q9UNQ0)
T1 sequence (Q9UNQ0 1-655): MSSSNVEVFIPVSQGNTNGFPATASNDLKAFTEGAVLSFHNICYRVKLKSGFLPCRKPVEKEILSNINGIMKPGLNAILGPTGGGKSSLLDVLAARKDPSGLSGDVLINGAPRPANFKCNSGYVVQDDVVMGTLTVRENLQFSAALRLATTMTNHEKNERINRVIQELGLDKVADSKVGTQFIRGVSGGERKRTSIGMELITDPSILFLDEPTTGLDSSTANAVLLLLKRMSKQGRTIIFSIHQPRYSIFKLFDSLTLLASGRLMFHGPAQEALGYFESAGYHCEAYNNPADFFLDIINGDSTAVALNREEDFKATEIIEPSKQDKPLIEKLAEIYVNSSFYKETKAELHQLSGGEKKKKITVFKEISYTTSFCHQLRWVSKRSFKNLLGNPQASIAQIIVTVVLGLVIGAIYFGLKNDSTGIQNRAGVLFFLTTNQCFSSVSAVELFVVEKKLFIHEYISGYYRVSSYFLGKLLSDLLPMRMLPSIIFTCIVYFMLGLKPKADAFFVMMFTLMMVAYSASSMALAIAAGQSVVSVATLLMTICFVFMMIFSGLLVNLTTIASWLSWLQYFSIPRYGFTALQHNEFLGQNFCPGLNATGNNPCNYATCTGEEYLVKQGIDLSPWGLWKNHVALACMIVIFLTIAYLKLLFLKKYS

ABCB1 (P-glycoprotein) = ABCB1 (P-glycoprotein) (Homo sapiens, UniProt P08183); assay: competition of […]-IAAP photoaffinity labeling in membrane vesicles; assay type: binding
Chain of ABCB1 (P-glycoprotein) (P08183 whole entry): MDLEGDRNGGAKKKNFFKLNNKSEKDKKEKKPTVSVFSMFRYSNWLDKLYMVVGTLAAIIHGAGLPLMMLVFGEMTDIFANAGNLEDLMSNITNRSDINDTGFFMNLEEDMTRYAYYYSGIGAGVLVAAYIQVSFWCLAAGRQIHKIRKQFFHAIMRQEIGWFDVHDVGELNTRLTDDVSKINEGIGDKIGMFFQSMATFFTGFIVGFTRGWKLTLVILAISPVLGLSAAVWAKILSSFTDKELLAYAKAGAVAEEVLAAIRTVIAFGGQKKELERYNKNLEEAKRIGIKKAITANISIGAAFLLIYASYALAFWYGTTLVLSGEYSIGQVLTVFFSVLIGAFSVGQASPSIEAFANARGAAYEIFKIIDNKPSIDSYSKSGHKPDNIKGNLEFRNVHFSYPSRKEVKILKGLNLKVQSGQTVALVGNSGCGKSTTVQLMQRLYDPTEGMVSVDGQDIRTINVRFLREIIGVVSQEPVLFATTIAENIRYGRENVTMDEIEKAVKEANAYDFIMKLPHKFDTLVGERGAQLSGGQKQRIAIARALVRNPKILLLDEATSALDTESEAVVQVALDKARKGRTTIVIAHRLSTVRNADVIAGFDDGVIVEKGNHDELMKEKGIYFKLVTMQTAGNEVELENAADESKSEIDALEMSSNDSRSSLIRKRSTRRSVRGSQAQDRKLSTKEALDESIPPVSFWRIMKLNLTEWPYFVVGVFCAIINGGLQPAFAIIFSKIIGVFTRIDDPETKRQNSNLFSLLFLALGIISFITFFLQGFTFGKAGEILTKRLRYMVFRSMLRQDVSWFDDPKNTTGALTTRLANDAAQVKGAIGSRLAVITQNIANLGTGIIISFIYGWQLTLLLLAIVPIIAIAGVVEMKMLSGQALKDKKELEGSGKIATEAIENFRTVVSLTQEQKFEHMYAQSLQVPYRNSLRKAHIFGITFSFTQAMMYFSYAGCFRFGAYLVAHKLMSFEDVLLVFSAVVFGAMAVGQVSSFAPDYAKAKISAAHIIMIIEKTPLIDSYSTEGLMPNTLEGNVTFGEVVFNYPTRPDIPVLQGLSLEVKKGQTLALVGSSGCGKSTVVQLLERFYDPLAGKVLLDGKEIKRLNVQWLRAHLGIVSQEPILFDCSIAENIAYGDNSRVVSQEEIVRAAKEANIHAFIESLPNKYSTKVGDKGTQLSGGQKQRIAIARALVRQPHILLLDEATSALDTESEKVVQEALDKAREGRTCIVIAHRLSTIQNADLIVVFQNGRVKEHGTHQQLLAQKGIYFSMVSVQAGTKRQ

C#Cc1cccc(Nc2ncnc3cc(OCCOC)c(OCCOC)cc23)c1 [erlotinib]
inhibition of [3H]-methotrexate uptake in membrane vesicles (ABCG2): inhibitory effect of lapatinib on methotrexate transport by ABCG2 membrane vesicles is comparable to that of erlotinib and FTC

CS(=O)(=O)CCNCc1ccc(-c2ccc3ncnc(Nc4ccc(OCc5cccc(F)c5)c(Cl)c4)c3c2)o1 [lapatinib, N-{3-chloro-4-[(3-fluorobenzyl)oxy]phenyl}-6-[5-({[2-(methylsulfonyl)ethyl]amino}methyl)-2-furyl]-4-quinazolinamine]
IC50 (ABCB1 (P-glycoprotein)): 2800 ± 600 nM
